Residues, ends and D or L forms follow the SMILES beside them. *: point of attachment. Cbz = O=C(OCc1ccccc1)*; CH2F = FC*
Key:
endogenous caspase-12 = assay: Caspase-12 cleavage/activation in SH-EP cells subjected to ER stress (Western blot); assay type: cell-based, human; settings: 2 μM A23187 40 hours, harvested 6.5 hours after UV
Procedure: (§1) The biological significance of caspase-12 up-regulation by the ER stress-inducing agent A23187 in apoptosis was further investigated. SH-EP cells were treated with 2 μM A23187 for 40 hours to induce expression of endogenous caspase-12. One control culture was left untreated. Of the four cultures treated with A23187, one culture received 10 μg/ml cycloheximide (CHX) to block new protein synthesis and two cultures were subjected to an apoptotic stimulus, either 250 ng/ml α-Fas antibody for 24 hours or 1200 microjoules UV irradiation. The cultures were harvested after 6.5 hours. Western blot analysis of caspase-12 expression and activation was done as described above in Example 8A, using similar protein loads for each condition tested.
Additional experiments of were conducted to evaluate the effect of a caspase or calpain inhibitor on SH-EP cells subjected to ER stress. Z-VAD-fmk (Z=benzyloxycarbonyl group at the N-terminus of Val-Ala-DL-Asp(OMe)-fluoromethylketone; BACHEM) is a general caspase inhibitor that inhibits most of the known caspases, to varying extents. Calpeptin is an inhibitor of calpains, a family of calcium-dependent proteases that proteolyze a variety of cellular proteins. […] Caspase activation was evaluated by Western blot using antibodies to caspase-12 as described above in Example 8A. […]

caspase-3 = assay: Caspase-3 cleavage following UV irradiation in SH-EP cells subjected to ER stress (Western blot); assay type: cell-based; settings: 2 μM A23187 40 hours
[1] = system: endogenous human caspase-12; assay: Induction of endogenous caspase-12 protein by ER stress-inducing agents in SH-EP cells (Western blot); assay type: cell-based
Procedure: Reports in the literature indicated a strong activation of murine caspase-12 in response to agents which induce an endoplasmic reticulum (ER) stress response, such as tunicamycin or the Ca^2+ ionophore A23187. The activation of endogenous human caspase-12 by these ER stress-inducing agents in SH-EP and HEK293 cells was evaluated by Western blot analysis of cell lysates. SH-EP is a neuroblastoma cell line that endogenously expresses human caspase-12 at detectable levels. HEK293 is a transformed kidney cell line that lacks detectable caspase-12.
Cell cultures were treated with 1 μg/ml tunicamycin or 2 μM A23187 (Calbiochem) and harvested over time. Cells were lysed in detergent buffer, cellular proteins resolved on NuPAGE gels and subjected to Western blot analysis using the same antibody as in Example 8A above. […] (BACHEM) for 40 hours.
as §1

COC(=O)C[C@H](NC(=O)[C@H](C)NC(=O)[C@@H](NC(=O)OCc1ccccc1)C(C)C)C(=O)CF [Z-VAD-fmk] (Cbz-Val-Ala-Asp(OMe)-CH2F)
Cleavage of pro-caspase-12 after UV irradiation (endogenous caspase-12; pre-incubated with 50 μM Z-VAD-fmk 1 hour prior to UV): reduces cleavage
Cleavage of caspase-3 following UV irradiation (caspase-3; 50 μM Z-VAD-fmk): inhibited

CNc1ccc2oc(C[C@H]3O[C@@]4(CC[C@H]3C)O[C@H]([C@H](C)C(=O)c3ccc[nH]3)[C@H](C)C[C@H]4C)nc2c1C(=O)O [A23187]
Induction of caspase-12 protein ([1]; SH-EP cells, 2 μM A23187, harvested over time): strong induction
Expression of caspase-12 ([1]; SH-EP cells, 2 μM A23187 for 40 hours): induced

C[C@@H]1C[C@@H]([C@H](O)CC2CC(=O)NC(=O)C2)C(=O)[C@@H](C)C1 [cycloheximide]
A23187-induced expression of caspase-12 ([1]; SH-EP cells, 2 μM A23187 for 40 hours plus 10 μg/ml cycloheximide): inhibited

CCCC[C@@H](C=O)NC(=O)[C@H](CC(C)C)NC(=O)OCc1ccccc1 [calpeptin]
Cleavage of procaspase-12 after UV irradiation (endogenous caspase-12; pre-incubated with 10 μM calpeptin 1 hour prior to UV): reduced
Cleavage of caspase-3 following UV irradiation (caspase-3; 10 μM calpeptin): not affected

β-amyloid [25-35]: β-amyloid [25-35] (BACHEM) (GSNKGAIIGLM; Amyloid-beta protein 42; UniProt P05067 696-706, looked up, fragment)
Induction of human caspase-12 ([1]; cultures treated with 40 μM β-amyloid [25-35] for 40 hours): induction of human caspase-12 was observed

From US6833248B2, “Human caspase-12 materials and methods” (Pharmacia & Upjohn Company, priority 2000, dated 2004)
